{"source": "PubChem BioAssay (NCI)", "note": "Where “and” joins values, the source holds several entries; their conditions need not be identical. Equal values may be shown once.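 A five-concentration, 48-hour dose response in 96-well plates underlies each endpoint, interpolated linearly between surrounding concentrations. GI50 is the concentration that inhibits growth by half. Definition used: TGI = concentration required for complete inhibition of growth.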 Calls of active or inactive are those of the source. Rule as the data show it: active = GI50 below about 0.43 µM; inactive = the rest.", "data": [{"system": "MDA-MB-468 breast", "test": "NCI tumour cell line growth inhibition, 48 h", "values": [{"smiles": "O=c1c2cccc(F)c2sc2c(N3CCNCC3)nc3ccccc3c12", "GI50": "1460 nM", "TGI": "3100 nM"}, {"smiles": "O=[N+]([O-])c1ccc(Sc2nc(Cl)nc(NC3CCCC3)n2)cc1", "GI50": "2100 nM", "TGI": "7130 nM"}, {"smiles": "Cc1cccc2nc3cccc(C(=O)NCCNCCNCCNC(=O)c4cccc5nc6cccc(C)c6nc45)c3nc12", "GI50": "17.2 nM", "TGI": "1020 nM"}, {"smiles": "COc1ccc(-c2nc(Nc3ccc(-c4nc5ccccc5[nH]4)cc3)nc(N3CCOCC3)n2)cc1", "GI50": "2920 nM", "TGI": "7650 nM"}, {"smiles": "CCC(C)[C@H](NC(=O)NC(=O)NC(=O)CI)C(=O)OC", "note": "(stereo partly drawn)", "GI50": "3540 nM", "TGI": "12600 nM"}, {"smiles": "CCCCCCCCCCC/C=C\\C[C@H](O)C/C=C1/C(=O)C=C[C@@H]1C/C=C\\CCCC(=O)OC", "GI50": "864 nM", "TGI": "3760 nM"}, {"smiles": "CC1=C(C(=O)Nc2ccc3[nH]ncc3c2)C(c2ccc(Cl)c(Cl)c2)CC(=O)N1", "note": "(stereo not drawn)", "GI50": "> 18000 nM", "TGI": "> 25000 nM"}, {"smiles": "Cc1ccc(/C=C/C(=N/N=C(N)N)c2ccccc2)cc1", "GI50": "509 nM", "TGI": "4130 nM"}, {"smiles": "CO[C@]12C=C/C(=C(/C(=O)OCc3cccnc3)C(=O)CCCCCCCC[C@@]3(OC)C=C/C(=C(/C(=O)OCc4cccnc4)C(=O)CCCCCCCC1)O3)O2", "GI50": "919 nM", "TGI": "2300 nM"}, {"smiles": "COc1cc(/C=C2\\Oc3cc(OCCCN4CCCC4)ccc3C2=O)cc(OC)c1", "GI50": "2930 nM", "TGI": "13000 nM"}, {"smiles": "Cc1cc2nc3ccc(=[N+](C)C)cc-3sc2cc1N", "GI50": "455 nM and 618 nM", "TGI": "2180 nM and 3820 nM"}, {"smiles": "Nc1ccc(-c2nnc(SCc3ccc(O)c4ncccc34)o2)cc1", "GI50": "38.7 nM", "TGI": "1160 nM"}, {"smiles": "COC(=O)c1ccc(NC2=C/C(=N/S(=O)(=O)c3ccc(C(=O)O)cc3)c3ccccc3C2=O)cc1", "GI50": "1710 nM", "TGI": "4040 nM"}, {"smiles": "CN1CC[C@]2(c3cccc(O)c3)CC(=O)/C(=C/c3ccccc3)[C@H]1C2", "GI50": "2190 nM", "TGI": "6200 nM"}, {"smiles": "CCOC(=O)c1ccc2c(c1)nc(/C=C/c1ccc(Cl)cc1)n2-c1cc(C(C)(C)C)[nH]n1", "GI50": "4680 nM", "TGI": "95600 nM"}, {"smiles": "Fc1ccc(-c2nn3c(-c4cc(C(F)(F)F)cc(C(F)(F)F)c4)nnc3s2)cc1", "GI50": "2530 nM", "TGI": "> 50000 nM"}, {"smiles": "O=C(O)C1C2C=CC(C2)C1C(=O)O", "note": "(stereo not drawn)", "GI50": "> 100000 nM", "TGI": "> 100000 nM"}, {"smiles": "Nc1nc2c(nnn2C2OC(CO)C(O)C2O)c(=O)[nH]1", "note": "(stereo not drawn)", "GI50": "488 nM", "TGI": "5370 nM"}, {"smiles": "CCCCCCC/C=C/[C@H]1O[C@]2(O)C(=O)C=C3C[C@@H](O[C@@H]4O[C@H](CO)[C@@H](O)C(O)[C@@H]4O)C[C@@H]3[C@H]2C=C1C", "note": "(stereo partly drawn)", "GI50": "3420 nM", "TGI": "11400 nM"}, {"smiles": "O=C1C(Nc2ccc(Br)cc2)=C(I)C(=O)c2ncccc21", "GI50": "970 nM", "TGI": "1930 nM"}, {"smiles": "CC(C)(CCN=C(N)Nc1ccccn1)c1ccc(C(F)(F)F)cc1", "GI50": "7070 nM", "TGI": "22300 nM"}, {"smiles": "CNc1cc2nc3cc(NC)c(C)cc3cc2cc1C", "GI50": "242 nM", "TGI": "1940 nM"}, {"smiles": "O=C(CCCCCCN1CC(=O)N2[C@@H](c3cccc(Br)c3)c3[nH]c4ccccc4c3C[C@H]2C1=O)NO", "GI50": "2090 nM", "TGI": "5470 nM"}, {"smiles": "CN(C)CCC=C1c2ccccc2C(C)(C)c2ccccc21", "GI50": "2590 nM", "TGI": "14000 nM"}, {"smiles": "Clc1cc2c(nn1)Nc1ccccc1S2", "GI50": "> 100000 nM", "TGI": "> 100000 nM"}, {"smiles": "COc1cc2nc(-c3ccc(Cl)cc3)cc(OCCCN3CCCC3)c2cc1OC", "GI50": "1280 nM", "TGI": "3110 nM"}, {"smiles": "O=c1c2c(c3ccccc3n1-c1ccccc1)NC(=S)NC2c1ccc(Cl)cc1", "note": "(stereo not drawn)", "GI50": "19000 nM", "TGI": "> 100000 nM"}, {"smiles": "c1ccc(Nc2nc(-c3ccccn3)cs2)nc1", "GI50": "1130 nM", "TGI": "11500 nM"}, {"smiles": "C=C1CC[C@@H]2[C@](C)(COC(C)=O)[C@H](OC(C)=O)CC[C@@]2(C)[C@@H]1CC(Nc1ccc(S(=O)(=O)Nc2cc(C)on2)cc1)C1=CCOC1=O", "note": "(stereo partly drawn)", "GI50": "1490 nM", "TGI": "3290 nM"}, {"smiles": "CC[C@@H](C(=O)[C@H](C)[C@H](O)[C@@H](C)[C@H]1O[C@H]([C@@H](CC)C(=O)O)CC[C@H]1C)C1O[C@]2(C=C[C@@H](O)[C@]3(CC[C@@](C)([C@H]4CC[C@](O)(CC)[C@H](C)O4)O3)O2)[C@H](C)C[C@@H]1C", "note": "(stereo partly drawn)", "GI50": "194 nM", "TGI": "1850 nM"}, {"smiles": "COC(C(=O)C(O)C(C)O)C1Cc2cc3cc(OC4CC(OC5CC(O)C(O)C(C)O5)C(O)C(C)O4)c(C)c(O)c3c(O)c2C(=O)C1OC1CC(OC2CC(O)C(OC3CC(C)(O)C(O)C(C)O3)C(C)O2)C(O)C(C)O1", "note": "(stereo not drawn)", "outcome": "inactive"}, {"smiles": "Cc1[nH]c(C(=O)Nc2ccccc2OC2CCNCC2)c(Cl)c1Cl", "GI50": "930 nM", "TGI": "1900 nM"}, {"smiles": "O=C(N=Nc1c(O)[nH]c2ccccc12)c1oc2ccccc2c1CN1CCN(c2ccccc2)CC1", "GI50": "1240 nM", "TGI": "3890 nM"}, {"smiles": "Nc1ccccc1NC(=O)c1ccc(CN2CCC/C(=C\\c3ccccn3)C2=O)cc1", "GI50": "1330 nM", "TGI": "3880 nM"}, {"smiles": "COc1cccc(-n2cc(-c3nc(Nc4cc(C)[nH]n4)c4ccccc4n3)nn2)c1", "GI50": "4320 nM", "TGI": "15700 nM"}, {"smiles": "CSc1ccc2c(c1)N(CCC1CCCCN1C)c1ccccc1S2", "note": "(stereo not drawn)", "GI50": "1780 nM", "TGI": "3920 nM"}, {"smiles": "NC1CCC(Nc2nc(NCc3cc(Cl)ccc3O)c3ncn(C4CCCC4)c3n2)CC1", "note": "(stereo not drawn)", "GI50": "158 nM", "TGI": "468 nM"}, {"smiles": "C=C1CCC2C3(C)COC(c4c(OC)cccc4OC)OC3CCC2(C)C1C/C=C1/C(=O)OCC1O", "note": "(stereo not drawn)", "GI50": "1470 nM", "TGI": "3350 nM"}, {"smiles": "COc1ccc(-c2nn(-c3cccc(NC(=O)Nc4ccccc4)c3)cc2-c2ccncc2)cc1Cl", "GI50": "2260 nM", "TGI": "6430 nM"}, {"smiles": "Clc1nc(Cl)c2c3c(sc2n1)CCCC3", "GI50": "2100 nM"}, {"smiles": "CCN(Cc1ccccc1Cl)c1ccc(CO)c(Cl)c1", "TGI": "116 nM"}, {"smiles": "CCCC[n+]1c(/C=C\\c2c(OC)cc(OC)cc2OC)ccc2ccccc21", "GI50": "241 nM", "TGI": "1380 nM"}, {"smiles": "CCCCCc1cc[n+](CC(=O)c2ccc([N+](=O)[O-])cc2)cc1", "GI50": "2170 nM", "TGI": "8060 nM"}]}]}
